Data taken from US4097471A, “Polypeptides with morphine-like activity” (American Home Products Corporation, priority 1977, dated 1978).
Peptide text beside a SMILES is read from it.

Assays:
[1] = system: pain threshold (tail-flick latency); experiment: rat-tail flick method, intracerebroventricular injection; assay type: in vivo; conditions: for Mean Latency ± SEM, Drug / Mean % Change ± SEM: injected into lateral ventricle; for Mean Latency ± SEM, Drug / Mean % Change ± SEM / analgesic effect / pain threshold: rat; for Mean % Change ± SEM: drug minus baseline latency; for analgesic effect / pain threshold: injected into the lateral brain ventricle
Description: In this test method, which is a standard test for analgesia, a light beam is focused on the tip of the rat's tail, and the pain threshold of the animal is measured by the latency of the rat to remove his tail from the noxious heat source. When tested by the rat-tail flick method by intracerebroventricular injection, according to the procedure of Belluzzi et al., Nature, 260, 625 (1976), the polypeptides of this invention produced the effects set forth in Table I.
*All drugs were dissolved in […]. of Ringer's solution and injected int
the lateral ventricle through permanently-indwelling cannulae.

analgesia = conditions: injection in the brain ventricle in rats; fully reversible by naloxone; cited from earlier work
opiate receptors = experiment: binding to opiate receptors in vitro, displacement of 3H-naloxone in rat brain homogenates

| Structure (SMILES) | Mean Latency ± SEM, Drug ([1]; dose 100 μg) | Mean % Change ± SEM ([1]; dose 100 μg) | analgesia (analgesia) | binding to opiate receptors in vitro (opiate receptors; in vitro) | displacing 3H-naloxone from binding sites (opiate receptors; rat brain homogenates) | Mean Latency ± SEM, Drug ([1]; dose 10 μg) | Mean % Change ± SEM ([1]; dose 10 μg) | Mean Latency ± SEM, Drug ([1]; dose 200 μg) | Mean % Change ± SEM ([1]; dose 200 μg) | analgesic activity at low dose ([1]; dose as low as 10 μg) | duration of analgesic effect ([1]; dose as low as 10 μg) | analgesic effect / pain threshold ([1]; listed as polypeptide of Formula I) | analgesic effect / pain threshold ([1]; listed as polypeptide of this invention) |
| --- | --- | --- | --- | --- | --- | --- | --- | --- | --- | --- | --- | --- | --- |
| CC(C)C[C@H](NC(=O)[C@H](Cc1ccccc1)NC(=O)CNC(=O)CNC(=O)[C@@H](N)Cc1ccc(O)cc1)C(=O)O [Leucine-Enkephalin, H-Tyr-Gly-Gly-Phe-Leu-OH, reference compound] | 5.11 ± 0.34 | 31.7 ± 11.5% | induce a profound analgesia |  |  |  |  |  |  |  |  |  |  |
| CC(C)C[C@H](NC(=O)[C@H](Cc1ccccc1)NC(=O)CNC(=O)CNC(=O)[C@@H](N)Cc1ccc(O)cc1)C(=O)N[C@H](C(=O)N[C@@H](CO)C(=O)N[C@@H](CCC(=O)O)C(=O)N[C@@H](CCCCN)C(=O)N[C@@H](CO)C(=O)N[C@@H](CCC(N)=O)C(=O)N[C@H](C(=O)N1CCC[C@H]1C(=O)N[C@@H](CC(C)C)C(=O)N[C@H](C(=O)N[C@H](C(=O)O)[C@@H](C)O)C(C)C)[C@@H](C)O)[C@@H](C)O [β-LPH 61-76 (Leu^65), L-Tyrosyl-glycyl-glycyl-L-phenylalanyl-L-leucyl-L-threonyl-L-seryl-L-glutamyl-L-lysyl-L-seryl-L-glutaminyl-L-threonyl-L-prolyl-L-leucyl-L-valyl-L-threonine] (H-YGGFLTSEKSQTPLVT-OH) | 6.26 ± 0.96 | 86.02 ± 30.79% |  | weak binding | capable of displacing 3H-naloxone | 4.33 ± 0.05 | 34.32 ± 8.75% | 4.16 | 3.04% | active | > 2 h | exerts an analgesic effect | produced an increase in pain threshold |
| CSCC[C@H](NC(=O)[C@H](Cc1ccccc1)NC(=O)CNC(=O)CNC(=O)[C@@H](N)Cc1ccc(O)cc1)C(=O)O [Methionine-Enkaphalin, H-Tyr-Gly-Gly-Phe-Met-OH] |  |  | induce a profound analgesia |  |  |  |  |  |  |  |  |  |  |
